In PubChem BioAssay (NCI) one finds TGI and GI50 data, which are given here for 11 compounds.

Some test systems named below: A549 NSCLC; RXF 393 renal; SN12C renal; SNB-75 CNS; OVCAR-3 ovarian; 786-0 renal; ACHN renal; HOP-62 NSCLC; RPMI-8226 leukemia; K-562 leukemia; SK-MEL-28 melanoma; OVCAR-8 ovarian; HCC-2998 colon.
What all share (assay): NCI-60 cell line screen, 48 h

SMILES strings stand for the structures.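 Dose response: 5 concentrations. Exposure: 48 h. Format: 96-well plates. Endpoint: linear interpolation; highest concentration if not reached. GI50 marks 50% less growth. TGI: concentration producing complete growth inhibition.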

Consider `CC(=O)c1cc(C)n2c1CS[C@@H]2c1ccccc1`, for which the TGI in the assay on A549 NSCLC is above 100 µM; with RXF 393 renal it was 91.6 µM; in the assay on SN12C renal, above 100 µM; in the assay on SNB-75 CNS it was above 100 µM; with OVCAR-3 ovarian, above 100 µM; in the assay on 786-0 renal it was 50.5 µM. For the same compound, the TGI is above 100 µM in the assay with ACHN renal; above 100 µM in the assay with HOP-62 NSCLC; 44 µM in the assay with RPMI-8226 leukemia; above 100 µM in the assay with K-562 leukemia; above 100 µM in the assay with SK-MEL-28 melanoma; above 100 µM with OVCAR-8 ovarian.

Consider `Cc1ccc2c(=O)cc(-c3sc4ccccc4c3C)[nH]c2n1`, for which the TGI with A549 NSCLC was 85.6 µM; in the assay with RXF 393 renal it was 53.1 µM; in the assay on SN12C renal, above 100 µM; in the assay with SNB-75 CNS, 50.8 µM; with OVCAR-3 ovarian, 50.1 µM; in the assay with 786-0 renal, 46.8 µM. For the same compound, the TGI in the assay on HOP-62 NSCLC is 75.4 µM; in the assay with RPMI-8226 leukemia, 38.1 µM; with K-562 leukemia it was above 100 µM; in the assay with SK-MEL-28 melanoma it was 71.4 µM; with OVCAR-8 ovarian it was 56.3 µM. The GI50 was 16.8 µM in the assay with RXF 393 renal and 19.7 µM in the assay with OVCAR-3 ovarian.

As to `CC1=NN=C(N)NC1=CC(Sc1ccc(Cl)cc1)c1c(O)ccc2ccccc12` (stereo unspecified), the TGI in the assay on A549 NSCLC was above 92.9 µM; in the assay on RXF 393 renal it was 20.3 µM; in the assay with SN12C renal, 97.3 µM; in the assay with SNB-75 CNS, 70.2 µM; in the assay on HCC-2998 colon, 32.2 µM; in the assay with 786-0 renal, above 65.6 µM. The TGI with ACHN renal is 28.1 µM; in the assay on HOP-62 NSCLC it was 57.7 µM; in the assay on RPMI-8226 leukemia, above 100 µM; in the assay with K-562 leukemia, above 100 µM; in the assay with SK-MEL-28 melanoma, above 62.6 µM; with OVCAR-8 ovarian, 43.6 µM.

In the case of `FC1=C2CCCCCC2SC1(F)F` (stereo unspecified), the TGI is above 100 µM in the assay with A549 NSCLC; 33.2 µM in the assay on RXF 393 renal; above 100 µM in the assay with SNB-75 CNS; above 100 µM with OVCAR-3 ovarian; above 100 µM in the assay on HCC-2998 colon; above 100 µM with 786-0 renal. Besides, the TGI with ACHN renal was 79.3 µM; in the assay with RPMI-8226 leukemia it was 84.9 µM; with K-562 leukemia it was 47.8 µM; with SK-MEL-28 melanoma, above 100 µM; with OVCAR-8 ovarian it was above 100 µM.

With `C/C(=N\Nc1nc2ccccc2s1)c1cc(C)ncn1`, the TGI was above 45.2 µM in the assay with A549 NSCLC; 20 µM in the assay with RXF 393 renal; 15.1 µM in the assay on SN12C renal; 15.1 µM in the assay with SNB-75 CNS; above 25 µM in the assay with OVCAR-3 ovarian; 14.6 µM in the assay with HCC-2998 colon. Moreover, the TGI with 786-0 renal was above 47.3 µM; in the assay with ACHN renal, above 32 µM; with HOP-62 NSCLC, 18.3 µM; in the assay on RPMI-8226 leukemia, above 21 µM; in the assay on SK-MEL-28 melanoma it was above 55.8 µM; in the assay on OVCAR-8 ovarian, 4.01 µM.

On to `CCN(CC)CCO/N=C1/C=C2CCC3C(CC[C@@]4(C)C3CC[C@]4(C)O)[C@@]2(C)CC1` (stereo partly specified), for which the TGI turned out to be 45.9 µM in the assay with A549 NSCLC; 72.2 µM in the assay with RXF 393 renal; 16.3 µM in the assay with SN12C renal; 9.15 µM in the assay with SNB-75 CNS; 13.6 µM in the assay with OVCAR-3 ovarian; 19 µM with HCC-2998 colon. Also, the TGI with 786-0 renal was determined as 12.7 µM; in the assay on ACHN renal it was 39.2 µM; with HOP-62 NSCLC, 21 µM; in the assay with RPMI-8226 leukemia it was 15.2 µM; with K-562 leukemia, 18.9 µM; in the assay on OVCAR-8 ovarian, 20.4 µM.

Consider `N#Cc1sc2c(c1O)c(=O)n(-c1ccccc1)c(=S)n2-c1ccccc1`, for which the TGI in the assay on A549 NSCLC, in the assay with RXF 393 renal, in the assay with SN12C renal, in the assay with SNB-75 CNS, with OVCAR-3 ovarian and in the assay with HCC-2998 colon was above 100 µM throughout. The TGI with 786-0 renal, in the assay on ACHN renal, with RPMI-8226 leukemia, in the assay with K-562 leukemia, in the assay with SK-MEL-28 melanoma and in the assay on OVCAR-8 ovarian was above 100 µM in each case.

For the compound `O=C(CC1C(=O)c2ccccc2C1=C1C(=O)c2ccccc2C1=O)c1ccccc1` (stereo unspecified), the TGI with A549 NSCLC, in the assay on RXF 393 renal, in the assay on SN12C renal, in the assay on SNB-75 CNS, with HCC-2998 colon and in the assay with 786-0 renal was above 100 µM each time. In addition, the TGI in the assay with ACHN renal, in the assay on HOP-62 NSCLC, in the assay with RPMI-8226 leukemia, in the assay with K-562 leukemia, in the assay with SK-MEL-28 melanoma and in the assay on OVCAR-8 ovarian was above 100 µM throughout.

Turning to `N#CCCN(CCN(CCC#N)C(=O)Nc1ccccc1)C(=O)Nc1ccccc1`, the TGI in the assay with A549 NSCLC is above 100 µM; in the assay with RXF 393 renal it was 75.3 µM; in the assay with SN12C renal, above 100 µM; in the assay on SNB-75 CNS, 47.8 µM; in the assay with HCC-2998 colon it was above 100 µM; with 786-0 renal, above 100 µM. The TGI with ACHN renal is above 100 µM; in the assay on HOP-62 NSCLC, 55 µM; with RPMI-8226 leukemia it was above 100 µM; in the assay with K-562 leukemia, above 100 µM; in the assay on SK-MEL-28 melanoma it was above 100 µM; in the assay with OVCAR-8 ovarian it was above 100 µM.

Consider `O=C(NNC(=O)c1ccccc1O)c1ccc(O)cc1`, for which the TGI with A549 NSCLC, in the assay with RXF 393 renal, in the assay with SN12C renal, in the assay on SNB-75 CNS, in the assay with OVCAR-3 ovarian and in the assay with 786-0 renal was above 100 µM each time. The TGI in the assay with HOP-62 NSCLC, in the assay with RPMI-8226 leukemia, in the assay with K-562 leukemia, in the assay on SK-MEL-28 melanoma and in the assay on OVCAR-8 ovarian was above 100 µM throughout.

For the compound `OC(C/C=N/Nc1ccccc1)(C(F)(F)Cl)C(F)(F)Cl`, the TGI with A549 NSCLC, with RXF 393 renal, in the assay on SN12C renal, in the assay with SNB-75 CNS, with OVCAR-3 ovarian and in the assay with HCC-2998 colon was above 10 µM throughout. Further, the TGI in the assay on 786-0 renal, in the assay with ACHN renal, with HOP-62 NSCLC, with K-562 leukemia, in the assay on SK-MEL-28 melanoma and in the assay with OVCAR-8 ovarian was above 10 µM each time.
